# Laboratory results: article PMC7872314, “Modeling Bioavailable Concentrations in Zebrafish Cell Lines and Embryos Increases the Correlation of Toxicity Potencies across Test Systems” (Environmental Science & Technology, 2020)
# Read-outs that look alike come from different tables or passages of the source.
# Assays:
# [1] = system: ZFL (hepatocytes) cell line; assay: cells; type: cell-based, zebrafish (Danio rerio); settings: Danio rerio, Hepatocyte
# zebrafish embryos [2] = system: zebrafish embryos; parameters: method as in earlier work; settings: nominal, cited from earlier work
# [3] = system: ZFL (hepatocytes) cell line; assay: cells; type: cell-based, zebrafish (Danio rerio); settings: Danio rerio, Hepatocyte; remark: listed apart in the source
# [4] = system: ZF4 (fibroblasts) cell line; assay: BCA assay (MTS/BCA multiplex), protein amount; type: cell-based, zebrafish (Danio rerio); settings: Danio rerio, Fibroblast
# [5] = system: ZF4 (fibroblasts) cell line; assay: alamarBlue (AB) endpoint of AB/CFDA/NR multiplex, cellular respiration; type: cell-based, zebrafish (Danio rerio); settings: Danio rerio, Fibroblast
# [6] = system: ZF4 (fibroblasts) cell line; assay: Neutral red, absorbance (NRa), AB/CFDA/NR multiplex, lysosome stability; type: cell-based, zebrafish (Danio rerio); settings: Danio rerio, Fibroblast
# zebrafish embryos [7] = assay: animal or person; type: in vivo, zebrafish (Danio rerio)
# [8] = system: ZF4 (fibroblasts) cell line; assay: CFDA endpoint of AB/CFDA/NR multiplex, membrane stability; type: cell-based, zebrafish (Danio rerio); settings: Danio rerio, Fibroblast
# [9] = system: ZF4 (fibroblasts) cell line; assay: Neutral red, fluorescence (NRf), AB/CFDA/NR multiplex, lysosome stability; type: cell-based, zebrafish (Danio rerio); settings: Danio rerio, Fibroblast
# [10] = ref Comptox, PubChem or DrugBank; cited from earlier work
# [11] = system: ZF4 (fibroblasts) cell line; assay: MTS assay (MTS/BCA multiplex), NAD(P)H metabolism; type: cell-based, zebrafish (Danio rerio); settings: Danio rerio, Fibroblast
# [12] = system: ZFL (hepatocytes) cell line; assay: cells; type: cell-based, zebrafish (Danio rerio); settings: Danio rerio, Hepatocyte; remark: listed apart in the source
# [13] = system: ZF4 (fibroblasts) cell line; assay: ATP assay (ATP/LDH multiplex), ATP metabolism; type: cell-based, zebrafish (Danio rerio); settings: Danio rerio, Fibroblast
# [14] = system: ZFL (hepatocytes) cell line; assay: cells; type: cell-based, zebrafish (Danio rerio); settings: Danio rerio, Hepatocyte; remark: listed apart in the source
# [15] = system: ZFL (hepatocytes) cell line; assay: cells; type: cell-based, zebrafish (Danio rerio); settings: Danio rerio, Hepatocyte; remark: listed apart in the source
# ZF4 and ZFL cell lines = assay: Cytotoxicity assays, all endpoints, both cell lines (mean/range); type: cell-based, zebrafish (Danio rerio); settings: 48 h
# [16] = system: ZFL (hepatocytes) cell line; assay: cells; type: cell-based, zebrafish (Danio rerio); settings: Danio rerio, Hepatocyte; remark: listed apart in the source
# [17] = system: ZFL (hepatocytes) cell line; assay: cells; type: cell-based, zebrafish (Danio rerio); settings: Danio rerio, Hepatocyte; remark: listed apart in the source
compound,measurement,setting,value
"CCC(C)C1OC2(CCC1C)CC1CC(CC=C(C)C(OC3CC(OC)C(OC4CC(OC)C(O)C(C)O4)C(C)O3)C(C)C=CC=C3COC4C(O)C(C)=CC(C(=O)O1)C34O)O2 (stereo not drawn) [Ivermectin, ivermectin]",IC50,"[1]; NR-abs - ZFL, log10 of IC50, read-out: LogIC50 (converted)",2.55 µM
same,IC50,"[1]; NR-abs - ZFL, read-out: IC50",2.55 µM
same,IC50,"[1]; ZFL, 48 h exposure, nominal, log10, read-out: logIC50 (log10 IC50;nom) NRa (converted)",2.57 µM
same,IC50,"[1]; ZFL, 48 h exposure, nominal, read-out: IC50;nom NRa",2.55 µM
same,EC50,"zebrafish embryos [2]; 144 hpf, converted, listed as Ive",0.503 µM
same,logEC50 144 hpf,zebrafish embryos [2]; log10,-6.299 M
same,IC50,"[3]; MTS - ZFL, log10 of IC50, read-out: LogIC50 (converted)",10.2 µM
same,IC50,"[3]; MTS - ZFL, read-out: IC50",10.2 µM
same,IC50,"[3]; ZFL, 48 h exposure, nominal, log10, read-out: logIC50 (log10 IC50;nom) MTS (converted)",10.2 µM
same,IC50,"[3]; ZFL, 48 h exposure, nominal, read-out: IC50;nom MTS",10.2 µM
same,IC50,"[4]; BCA - ZF4, log10 of IC50, read-out: LogIC50 (converted)",16.2 µM
same,IC50,"[4]; BCA - ZF4, read-out: IC50",16.2 µM
same,IC50,"[4]; ZF4, 48 h exposure, nominal, log10, read-out: logIC50 (log10 IC50;nom) BCA (converted)",16.2 µM
same,IC50,"[4]; ZF4, 48 h exposure, nominal, read-out: IC50;nom BCA",16.2 µM
same,IC50,"[5]; AB - ZF4, log10 of IC50, read-out: LogIC50 (converted)",10.2 µM
same,IC50,"[5]; AB - ZF4, read-out: IC50",10.2 µM
same,IC50,"[5]; ZF4, 48 h exposure, nominal, log10, read-out: logIC50 (log10 IC50;nom) AB (converted)",10.2 µM
same,IC50,"[5]; ZF4, 48 h exposure, nominal, read-out: IC50;nom AB",10.2 µM
same,IC50,"[6]; NR-abs - ZF4, log10 of IC50, read-out: LogIC50 (converted)",15.4 µM
same,IC50,"[6]; NR-abs - ZF4, read-out: IC50",15.4 µM
same,IC50,"[6]; ZF4, 48 h exposure, nominal, log10, read-out: logIC50 (log10 IC50;nom) NRa (converted)",15.5 µM
same,IC50,"[6]; ZF4, 48 h exposure, nominal, read-out: IC50;nom NRa",15.4 µM
same,difference in toxicity (EC50;nom) between 48 hpf and 144 hpf,zebrafish embryos [7]; 48 hpf time point less sensitive than 144 hpf,marginally more toxic
same,log EC50;nom (mFET),"zebrafish embryos [7]; 48 hpf, nominal, log10, listed as Ive",-5.766 M
same,EC50,"zebrafish embryos [7]; Danio rerio, 48 hpf, nominal, log10, read-out: log EC50;nom (mFET) (converted)",1.7 µM
same,EC50,"zebrafish embryos [7]; Danio rerio, 48 hpf, nominal, read-out: EC50;nom (embryo)",1.5 µg/mL
same,EC50,"zebrafish embryos [7]; Danio rerio, read-out: EC50 48hpf",1.71 µM
same,EC50,"zebrafish embryos [7]; Danio rerio, read-out: EC50;nom (mFET)",1.71 µM
same,EC50,"zebrafish embryos [7]; zebrafish, in vivo, listed as Ive, read-out: EC50;nom (mFET)",1.71 µM
same,IC50,"[8]; CFDA - ZF4, log10 of IC50, read-out: LogIC50 (converted)",18.2 µM
same,IC50,"[8]; CFDA - ZF4, read-out: IC50",18.2 µM
same,IC50,"[8]; ZF4, 48 h exposure, nominal, log10, read-out: logIC50 (log10 IC50;nom) CFDA (converted)",18.2 µM
same,IC50,"[8]; ZF4, 48 h exposure, nominal, read-out: IC50;nom CFDA",18.2 µM
same,IC50,"[9]; NR-fluo - ZF4, log10 of IC50, read-out: LogIC50 (converted)",18.1 µM
same,IC50,"[9]; NR-fluo - ZF4, read-out: IC50",18.1 µM
same,IC50,"[9]; ZF4, 48 h exposure, nominal, log10, read-out: logIC50 (log10 IC50;nom) NRf (converted)",18.2 µM
same,IC50,"[9]; ZF4, 48 h exposure, nominal, read-out: IC50;nom NRf",18.1 µM
same,Physiological charge,[10],0
same,Water Solubility,[10],insoluble
same,logKow,[10],5.83
same,pKa (Strongest Acidic),[10],12.47
same,pKa (Strongest Basic),[10],-3.4
same,IC50,"[11]; MTS - ZF4, log10 of IC50, read-out: LogIC50 (converted)",13.6 µM
same,IC50,"[11]; MTS - ZF4, read-out: IC50",13.6 µM
same,IC50,"[11]; ZF4, 48 h exposure, nominal, log10, read-out: logIC50 (log10 IC50;nom) MTS (converted)",13.5 µM
same,IC50,"[11]; ZF4, 48 h exposure, nominal, read-out: IC50;nom MTS",13.6 µM
same,IC50,"[12]; NR-fluo - ZFL, log10 of IC50, read-out: LogIC50 (converted)",3.34 µM
same,IC50,"[12]; NR-fluo - ZFL, read-out: IC50",3.34 µM
same,IC50,"[12]; ZFL, 48 h exposure, nominal, log10, read-out: logIC50 (log10 IC50;nom) NRf (converted)",3.31 µM
same,IC50,"[12]; ZFL, 48 h exposure, nominal, read-out: IC50;nom NRf",3.34 µM
same,IC50,"[13]; ATP - ZF4, log10 of IC50, read-out: LogIC50 (converted)",15.4 µM
same,IC50,"[13]; ATP - ZF4, read-out: IC50",15.4 µM
same,IC50,"[13]; ZF4, 48 h exposure, nominal, log10, read-out: logIC50 (log10 IC50;nom) ATP (converted)",15.5 µM
same,IC50,"[13]; ZF4, 48 h exposure, nominal, read-out: IC50;nom ATP",15.4 µM
same,IC50,"[14]; ATP - ZFL, log10 of IC50, read-out: LogIC50 (converted)",2.61 µM
same,IC50,"[14]; ATP - ZFL, read-out: IC50",2.61 µM
same,IC50,"[14]; ZFL, 48 h exposure, nominal, log10, read-out: logIC50 (log10 IC50;nom) ATP (converted)",2.63 µM
same,IC50,"[14]; ZFL, 48 h exposure, nominal, read-out: IC50;nom ATP",2.61 µM
same,IC50,"[15]; BCA - ZFL, log10 of IC50, read-out: LogIC50 (converted)",7.08 µM
same,IC50,"[15]; BCA - ZFL, read-out: IC50",7.08 µM
same,IC50,"[15]; ZFL, 48 h exposure, nominal, log10, read-out: logIC50 (log10 IC50;nom) BCA (converted)",7.08 µM
same,IC50,"[15]; ZFL, 48 h exposure, nominal, read-out: IC50;nom BCA",7.08 µM
same,IC50,"ZF4 and ZFL cell lines; Danio rerio, read-out: Mean log IC50nom, mean of all cytotoxicity endpoints (without LDH) in ZF4 and ZFL, 48 h, log10 (converted)",9.12 µM
same,Mean log IC50nom,"ZF4 and ZFL cell lines; mean of all cytotoxicity endpoints (without LDH) in ZF4 and ZFL, log10, listed as Ive",-5.042 M
same,IC50,"[16]; AB - ZFL, log10 of IC50, read-out: LogIC50 (converted)",6.58 µM
same,IC50,"[16]; AB - ZFL, read-out: IC50",6.58 µM
same,IC50,"[16]; ZFL, 48 h exposure, nominal, log10, read-out: logIC50 (log10 IC50;nom) AB (converted)",6.61 µM
same,IC50,"[16]; ZFL, 48 h exposure, nominal, read-out: IC50;nom AB",6.58 µM
same,IC50,"[17]; CFDA - ZFL, log10 of IC50, read-out: LogIC50 (converted)",14.1 µM
same,IC50,"[17]; CFDA - ZFL, read-out: IC50",14.1 µM
same,IC50,"[17]; ZFL, 48 h exposure, nominal, log10, read-out: logIC50 (log10 IC50;nom) CFDA (converted)",14.1 µM
same,IC50,"[17]; ZFL, 48 h exposure, nominal, read-out: IC50;nom CFDA",14.1 µM
